# Assay results as given in patent publication US20150272992A1, “Treatment of Tumors with Activated Mesenchymal Stem Cells” (THE TEXAS A&M UNIVERSITY SYSTEM, priority 2012, published 2015).
# Assays:
# Assay type in all cases: cell-based, human
# MDA cells [1] = assay: MDA cells incubated with agent alone (live cell counting, MTT, Annexin V/7AAD)
# Experimental: (§1) hMSCs were plated at 10^5 cells in CCM in 6-well plates and incubated for 4 hrs. For pre-activation, hMSCs were incubated at 37° C. for 24 hrs in 2% CM containing 10 ng/mL TNF-α. For co-culture, an equal number of MDA cells in 2% CM with or without TNF-α (10 ng/mL) were added to hMSC containing wells. For transwell cultures, hMSCs were plated at 10^5 cells in the upper compartment (Transwell, 0.4 μm pore size; Corning; Corning, N.Y.), while an equal number of MDA cells was plated in the lower compartment in 2% CM with or without TNF-α (10 ng/mL). After 24 hrs, supernatants and cells were collected. For some experiments, MDA cells were treated with 1 to 100 ng/mL doxorubicin (Sigma-Aldrich) in 2% CM for 24 his at 37° C., prior to co-culture with hMSCs. In other experiments, hMSCs were treated with either apoptotic MDA cells or 1 μg/mL Polyinosinic-Polycytidylic acid [Poly(I:C); Sigma-Aldrich; St. Louis, Mo.] with or without TNF-α (10 ng/ml) for 24 hrs in 2% CM.
# (§2) hMSCs and MDA cells from co-culture experiments were suspended in PBS and incubated with CD90-PE (Clone Thy1/310; Beckman Coulter) for 45 minutes on ice, washed with PBS by centrifugation, incubated at RT for 20 minutes with 300 ng/mL annexin V (AnnexinV-FITC Apoptosis Detection Kit; Sigma-Aldrich) and 4 μg/mL 7-aminoactinomycin D (7AAD; Sigma-Aldrich.), and analyzed by flow cytometry (Cytomics FC500; Beckman Coulter).
# TRAIL = TRAIL expression in hMSCs (real-time RT-PCR, Western, ELISA, IF)
# Experimental: (§3) Approximately 200 ng of total RNA extracted from cultured cells was used to synthesize double-stranded complementary DNA (cDNA) by reverse transcription (SuperScript III; Invitrogen). cDNA was analyzed by real-time PCR using TaqMan Universal PCR Master Mix (Applied Biosystems). For the assays, reactions were incubated at 50° C. for 2 minutes and at 95° C. for 10 minutes followed by 40 cycles at 95° C. for 15 seconds and 60° C. for 1 minute. For relative quantitation of gene expression, human-specific GAPDH primers and probe (Taq-Man Gene Expression Assays ID, Hs00266705_g1) were used. The other PCR primers and probes were human DKK3 (Hs00247426_m1), human TRAIL (TNFSF10: Hs00921974_m1) and human TLR3 (Hs01551078_m1) all purchased from the same source (Applied Biosystems).
# (§4) Cultured cells were sorted using FACS after CD90-PE staining. Sorted samples were lysed (Cell Extraction Buffer; Invitrogen) and sonicated for 15-20 seconds (Ultrasonic Processor, 130W; Cole-Parmer; Vernon Hills, Ill.). […] The samples were heated at 97° C. for 5 minutes. Denatured protein samples were separated by electrophoresis on polyacrylamide gels (NuPAGE® Bis-Tris Gels; Invitrogen) and proteins transferred to Invitrolon™ PVDF membrane (Pore size—0.45 μm; Invitrogen) using Novex® NuPAGE® SDS-PAGE Gel System (Invitrogen). Membranes were then blocked for 1 hour at room temperature (RT) using blocking buffer that contained 5% non-fat dry milk (Cell Signaling Technologies, Inc.) in Tris-buffered saline with 0.1% Tween-20 (TBST). After blocking, membranes were incubated overnight at 4° C. with primary antibodies that were diluted in 5% BSA in TBST. The membranes were washed with TBST three times for 5 minutes each, and incubated with secondary antibodies, which were diluted in blocking buffer, for 1 hour at RT. After secondary antibody incubation, the membranes were washed with TBST three times and developed using West-Q Chemiluminescent Substrate Kit (Gendepot, Inc.; Barker, Tex.) for 1 minute. Images were taken using Molecular Imager VersaDoc™ MP 4000 (Bio-rad Laboratories). The membranes were washed with TBST three times and stripped using Restore™ Western Blot Stripping buffer (Thermo Fisher Scientific, Inc.) for 15 minutes at 37° C., followed by three more washes with TBST. The membranes were blocked for 1 hour using blocking buffer and incubated with β-actin primary antibody conjugated with HRP (1:10,000) diluted in blocking buffer followed by imaging as described above. […]
# Conditioned media from cultured MDA and hMSCs were collected after 24 hour incubation. For the DKK-3 assay, culture media were filtered (Spin-X® Centrifuge Tube Filter, 0.22 μm; Corning, Inc) and the protein level was detected by ELISA (Human Dkk-3 DuoSet; R&D Systems). […]
# MDA cells [2] = assay: Co-culture of hMSCs and MDA cells (Annexin V/7AAD apoptosis, live cell counting)
# Experimental: as §1, §2
# hMSCs (5×10^4 cells/well in 6 well plate) were treated with either TLR3 antibody (5 μg/mL; eBioscience, Inc; San Diego, Calif.), TRAIL antibody (25 μg/mL; BD Biosciences, Inc; San Jose, Calif.), or normal mouse IgG (5 or 25 μg/mL; PeproTech, Inc; Rocky Hill, N.J.) for 30 minutes at 37° C. in 2% CM with or without TNF-α (10 ng/mL) prior to co-culture with an equal number of MDA cells for 24 hrs.
# DKK3 = DKK3 expression in hMSCs (ELISA); settings: 10 ng/mL TNF-α
# Experimental: Conditioned media from cultured MDA and hMSCs were collected after 24 hour incubation. For the DKK-3 assay, culture media were filtered (Spin-X® Centrifuge Tube Filter, 0.22 μm; Corning, Inc) and the protein level was detected by ELISA (Human Dkk-3 DuoSet; R&D Systems). For detection of TRAIL, the filtered medium was concentrated to 4 times (Vivaspin 6 (5 kDa MWCO; GE Healthcare; UK) and assayed by ELISA (Human TRAIL Quantikine ELISA kit; R&D Systems).
# TLR3 = TLR3 expression in hMSCs (real-time RT-PCR); settings: incubation with TNF-α
# Experimental: as §3
# hMSCs and MDA cell were separated by cell sorting (FACS, MoFlo™ XDP; Beckman Coulter; Brea, Calif.) after labeling with CD90-PE for 45 minutes on ice. RNA was extracted using RNeasy Mini Kit (QIAGEN). See Supplemental Information for real time RT-PCR analysis.
# [3] = system: cyclin D1, cyclin D3 and p21; assay: Cyclin D1, cyclin D3 and p21 in MDA cells (Western blot, IF staining); settings: TNF-α alone
# Experimental: as §4, with “Laboratories).” for “Laboratories). The membranes were washed with TBST three times and stripped using Restore™ Western Blot Stripping buffer (Thermo Fisher Scientific, Inc.) for 15 minutes at 37° C., followed by three more washes with TBST. The membranes were blocked for 1 hour using blocking buffer and incubated with β-actin primary antibody conjugated with HRP (1:10,000) diluted in blocking buffer followed by imaging as described above.”
# β-catenin = β-catenin in MDA cells (IF staining); settings: 24 hr incubation with rhDKK3
# Experimental: For immunofluorescence staining, hMSCs were cultured in CCM overnight in 150 mm diameter plates and replated at 10,000 cells/cm^2 in chambered slides (Lab Tek II Chamber Slide™ System; Nunc Thermo Scientific, Rochester, N.Y.). […] After co-culture, the cells were washed with PBS twice and fixed with either methanol for anti-TRAIL antibody or 4% PFA for all other antibodies. The slides were further processed for immuno-staining as described above. The antibodies used for immunochemistry were anti-human nuclei mouse monoclonal antibody (Millipore, Billerica, Mass.) anti-GFP-Alexa Fluor® rat monoclonal antibody (RQ2; MBL Co. Ltd, Woburn, Mass.), anti-human TRAIL rabbit polyclonal antibodies (C92B9; Cell Signaling) anti-human cyclin D1 mouse monoclonal antibody (DCS6; Cell Signaling), anti-human p21 mouse monoclonal antibody (DCS60; Cell Signaling) and anti-human β-catenin mouse monoclonal antibodies (BD Bioscience, Sparks, Md.). Alexa Fluor® antibodies (Invitrogen) were used for secondary antibodies.
# U87 = assay: Live cell number / cell death of U87 cells; settings: 100 ng/ml rhTRAIL, 24 hour; compared with MDA cells
molecule,measurement,setting,value
COc1cccc2c1C(=O)c1c(O)c3c(c(O)c1C2=O)C[C@@](O)(C(=O)CO)C[C@@H]3O[C@H]1C[C@H](N)[C@H](O)[C@H](C)O1 [doxorubicin],apoptosis of MDA cells,MDA cells [1]; 100 ng/mL (0.2 μM),did not induce apoptosis
same,proliferation of MDA (recovery of live cells),"MDA cells [1]; 100 ng/mL (0.2 μM), 24 hrs",suppressed proliferation of MDA
same,number of live MDA cells recovered from cultures,"MDA cells [1]; after 24 hrs, 1 to 100 ng/mL, dose dependent",decreased the number of live MDA cells
DNase,increase of TRAIL in hMSCs by apoptotic MDA cells pre-treated with enzyme,TRAIL; 24 hr incubation,inhibited the increase of TRAIL in hMSCs
IFN-γ: pro-inflammatory agent,up-regulation of TRAIL in hMSCs,"TRAIL; 24 hour incubation of hMSCs with the agent, real time RT-PCR",30 fold
Polyinosinic-Polycytidylic acid [poly(I:C)],expression of TRAIL in hMSCs,"TRAIL; 1 μg/mL Poly(I:C), 24 hrs",increased expression of TRAIL in hMSCs
same,MDA apoptosis when agent added to co-cultures,"MDA cells [2]; poly(I:C)/TNF-α pre-activated hMSCs, 24 hr",small but statistically significant increase in MDA apoptosis
TNF-α,expression of TRAIL protein in hMSCs,TRAIL; 10 ng/mL TNF-α,up-regulated
same,expression of DKK3 protein in hMSCs,DKK3,up-regulated
same,expression of TLR3 in hMSCs,TLR3,increased by incubation with TNF-α
same,concentration adequate to activate hMSCs to induce MDA apoptosis,MDA cells [2]; co-culture,0.1 ng/mL
same,activation of hMSCs to induce apoptosis of MDA cells in co-culture,MDA cells [2]; over the range of 0.1 to 10 ng/mL,concentration dependent
same,"expression of cyclin D1, D3 and p21 in MDA cells",[3],had no significant effect
rhDKK-3: recombinant human DKK3 (R&D Systems),number of β-catenin expressing MDA,β-catenin,decreased the number of β-catenin expressing MDA
same,"proliferation of MDA cells (MTT, live cell number)",MDA cells [1]; 24 hr incubation with rhDKK3,decreased
same,viability of MDA cells (Annexin V & 7AAD),"MDA cells [1]; rhDKK3 5 ng/mL, 24 hr",without affecting the viability of MDA cells
"rhTRAIL: recombinant human TRAIL (R&D Systems) (protein, UniProt P50591 39-281, looked up, extracellular domain) extracellular domain: TNELKQMQDKYSKSGIACFLKEDDSYWDPNDEESMNSPCWQVKWQLRQLVRKMILRTSEETISTVQEKQQNISPLVRERGPQRVAAHITGTRGRSNTLSSPNSKNEKALGRKINSWESSRSGHSFLSNLHLRNGELVIHEKGFYYIYSQTYFRFQEEIKENTKNDKQMVQYIYKYTSYPDPILLMKSARNSCWSKDAEYGLYSIYQGGIFELKENDRIFVSVTNEHLIDMDHEASFFGAFLVG",sensitivity of U87 cells (cell death),U87,less sensitive to rhTRAIL than MDA cells
